{"source": "patent US12551581B2", "about": "“Combination cancer immunotherapy with pentaaza macrocyclic ring complex” (Galera Labs, LLC, priority 2017, dated 2026)", "key": {"[1]": {"settings": "rat collagen-induced arthritis; Salvemini et al. 2001; cited from earlier work"}, "[2]": {"settings": "hamster oral mucositis; Murphy et al. 2008; cited from earlier work"}, "[3]": {"settings": "rats, experimental colitis; Cuzzocrea et al. 2001; cited from earlier work"}, "[4]": {"settings": "lethal total body irradiation, adult mice; Thompson et al. 2010; cited from earlier work"}, "[5]": {"settings": "rat model; Salvemini et al. 1999; cited from earlier work"}, "LLC tumors": {"system": "LLC tumors", "assay": "LLC abscopal study, GC4419 with radiation and anti-CTLA4, primary and secondary tumors", "type": "in vivo, C57Bl/6 mice", "experimental": "Syngeneic animals (C57Bl/6 mice) were subcutaneously implanted with LLC cells in the right flank to form a xenograft (primary tumor). On day 2, the same animals were subcutaneously implanted with LLC cells in the left flank for form another xenograft (secondary tumor). On day 8, some animals began treatment with anti CTLA-4 antibodies (200 μg) as indicated below. On day 11, when both primary and secondary tumors were palpable, all animals were treated with GC4419 (24 mg/kg), 15 Gy of 250 kVp X-rays, and/or anti CTLA-4 antibodies (10 mg/kg), as described in Table 10 below. Tumor growth was tracked as a function of time for both primary and secondary tumors."}, "[6]": {"system": "4T1 mouse breast cancer tumors", "assay": "4T1 syngeneic model, GC4419 with anti-CTLA-4, delayed/skip dosing (Example 6)", "type": "in vivo, Balb/C mice", "experimental": "GC4419 was administered in combination with the T-cell checkpoint inhibitor anti-CTLA-4 (9D9) to female Balb/C mice implanted subcutaneously with the mouse breast cancer cell line, 4T1. Tumors were allowed to grow for up to 35 days or until they exceeded 3000 mm^3 (or Group mean of 2000 mm^3).\nTreatments with the antibody and GC4419 are described in Table 8.\nTumor volumes were assessed and mean values are shown in FIGS. 5C and 5D (Mean Tumor Volumes in 4T1 Model)."}, "[7]": {"settings": "rat model; Tuder et al. 2003; cited from earlier work"}, "4T1 tumors [8]": {"system": "4T1 tumors", "assay": "4T1 tumor volume with GC4419 and/or radiation in immunodeficient mice", "type": "in vivo", "settings": "nu/nu mice", "experimental": "(§1) In separate studies, either syngeneic Balb/c mice or immunodeficient nu/nu mice were subcutaneously implanted with 4T1 cells to form a xenograft. On day 11 after transplant, animals were treated with GC4419 (24 mg/kg) and/or 15 Gy of 250 kVp X-rays, as described in Table 5 below.\n(§2) Tumor volume was tracked as a function of time, and Day 17 (the last common day of measurement between the two studies given the rapid growth of tumors in the nu/nu mice) mean tumor volumes are described in Table 6 below."}, "[9]": {"settings": "head-and-neck cancer patients undergoing chemoradiation therapy; Anderson 2015; cited from earlier work"}, "[10]": {"system": "Colon 26 mouse colon cancer cell line tumors", "assay": "Colon 26 syngeneic tumor model, GC4419 with anti-PD1", "type": "in vivo, Balb/C mice", "settings": "1 and 3 mg/kg bid ip GC4419 added to anti-PD1 5 mg/kg; versus anti-PD1 alone", "experimental": "GC4419 was administered in combination with the T-cell checkpoint inhibitor anti-PD-1 (RMP1-14) to female Balb/C mice implanted with the mouse colon cancer cell line, Colon 26 beginning on day 3 post-implantation. Tumors were allowed to grow for up to 52 days or until they exceeded 1000 mm3.\nTreatments with the antibody and GC4419 are described in Table 1.\nTumor volumes were assessed and median and mean values are shown in FIG. 1 (Median Tumor Volumes in Colon 26 Model) and 2 (Mean Tumor Volumes in Colon 26 Model)."}, "4T1 tumors [11]": {"system": "4T1 tumors", "assay": "4T1 tumor volume with GC4419 and/or radiation in immunocompetent mice", "type": "in vivo, Balb/c mice", "experimental": "as §1, §2"}, "[12]": {"system": "4T1 mouse breast cancer tumors", "assay": "4T1 syngeneic tumor model, GC4419 with anti-CTLA-4, start day varied (Example 5)", "type": "in vivo, Balb/C mice", "experimental": "GC4419 was administered in combination with the T-cell checkpoint inhibitor anti-CTLA-4 (9D9) to female Balb/C mice implanted subcutaneously with the mouse breast cancer cell line, 4T1. Tumors were allowed to grow for up to 45 days or until they exceeded 3000 mm^3 (or Group mean of 2000 mm^3).\nTreatments with the antibody and GC4419 are described in Table 7.\nTumor volumes were assessed and mean values are shown in FIG. 5A (Mean Tumor Volumes in 4T1 Model).\nFIG. 5B depicts such an improvement occurring for dosing of GC4419 that is delayed until day 13 after a start of anti-CTLA4 administration (i.e., after the 5th dose of anti-CTLA4). In comparison of arms treated with (a) combination of GC4419 with anti-CTLA4 treatment and (b) anti-CTLA4 treatment alone, no difference should be apparent between the two arms before addition of GC4419 treatment. As a result tumor control was assessed by normalizing the tumor growth curves of each arm with respect to the day on which treatment with GC4419 was started in the combination arm (i.e., day 13 in FIG. 5B)."}, "[13]": {"system": "Lewis lung carcinoma (LLC) tumors", "assay": "Lewis lung carcinoma tumors, GC4419 plus ionizing radiation", "type": "in vivo, C57.CL/6 mice", "experimental": "The effects of GC4419 plus IR on intratumoral levels of key immune cell populations were tested in Lewis lung carcinoma (LLC) tumors. In the study, 4 week old C57.CL/6 mice were injected with LLC cells to form tumors. At 13 days post-injection, animals were treated with GC4419 at doses of 3, 10 and 24 mg/kg and 15 Gy of 250 kVp X-rays. Tumor growth was tracked until tumor size exceeded 2 cm in any one direction. In addition, tumor infiltrating lymphocyte populations were assessed in separate animals via flow cytometry at various time points post IR (15 Gy) in combination with 10 mg/kg GC4419 treatment. Intratumoral populations of neutrophils, macrophages and activated cytotoxic T-cells were altered due to the presence of GC4419 either with or without ionizing radiation, as shown in FIG. 6B. However, it is unclear from this study alone whether these transient alterations in the immune cell populations caused by GC4419 contribute to improved results for the combination of GC4419 with checkpoint inhibitor therapy combined or in the absence of radiation therapy."}, "[14]": {"system": "4T1 tumors and lung metastases", "assay": "4T1 metastatic breast cancer model, GC4419 with radiation and anti-CTLA4", "type": "in vivo, mice (syngeneic)", "experimental": "Specifically, as shown in FIGS. 4A-4C, GC4419 decreases metastasis and enhances the efficacy of the combination of radiation and T-cell checkpoint inhibitor anti-CTLA4 (9D9) in the 4T1 metastatic breast cancer model. Syngeneic animals were subcutaneously implanted with 4T1 cells to form a xenograft. On day 12, when no lung metastasis is present, animals were treated with GC4419 (24 mg/kg), 15 Gy of 250 kVp X-rays, and/or anti CTLA-4 antibodies (10 mg/kg) or IgG control antibodies, as described in Table 3 below. Tumor growth was tracked as a function of time and at day 35 post implantation ([…]), animals were euthanized and lungs collected to count metastases."}}, "note": "Where two headings read alike, the source gives them in different places."}
{"smiles": "[Cl-].[Cl-].[Mn+2].c1cc2nc(c1)CN[C@@H]1CCCC[C@H]1NCCN[C@@H]1CCCC[C@H]1NC2", "note": "[GC4403]", "values": [{"measurement": "joint disease", "setting": "[1]", "value": "prevent joint disease"}, {"measurement": "radiation damage", "setting": "[2]", "value": "attenuate the radiation damage"}, {"measurement": "injury to the colon", "setting": "[3]", "value": "very significantly reduce the injury to the colon"}, {"measurement": "radiation damage", "setting": "[4]", "value": "attenuate the radiation damage"}, {"measurement": "inflammation", "setting": "[5]", "value": "inhibit inflammation"}]}
{"smiles": "[Cl][Mn][Cl].c1cc2nc(c1)CN[C@H]1CCCC[C@@H]1NCCN[C@H]1CCCC[C@@H]1NC2", "note": "[GC4419]", "values": [{"measurement": "sensitization of primary and secondary tumors to radiation (growth delay)", "setting": "LLC tumors; GC4419 D11-15 with 15 Gy RT D11 to primary tumor", "value": "sensitized primary and secondary tumors to radiation"}, {"measurement": "growth of secondary tumors (FIG. 8E)", "setting": "LLC tumors; GC4419 added to anti CTLA-4 therapy and radiation therapy", "value": "slowed the growth of secondary tumors"}, {"measurement": "sensitization of primary tumors to combination of anti CTLA-4 therapy and radiation therapy", "setting": "LLC tumors; GC4419 added to anti-CTLA4 200 μg + 15 Gy RT", "value": "sensitized"}, {"measurement": "tumor volumes", "setting": "[6]; 3 mg/kg or 10 mg/kg GC4419 added to anti-CTLA4, started at least 3 days after antibody", "value": "significant further decrease in tumor volumes"}, {"measurement": "tumor volume (FIG. 5D)", "setting": "[6]; GC4419 10 mg/kg versus 3 mg/kg, with anti-CTLA4", "value": "improved results over a dose of 3 mg/kg"}, {"measurement": "tumor volume (FIG. 5C)", "setting": "[6]; skipping GC4419 on days when anti-CTLA4 was administered", "value": "further improved the results, albeit slightly"}, {"measurement": "VEGFr inhibitor-induced pulmonary disease", "setting": "[7]", "value": "attenuate VEGFr inhibitor-induced pulmonary disease"}, {"measurement": "Day 17 Tumor Volume, V", "setting": "4T1 tumors [8]; mean, GC4419 24 mg/kg D11-15, RT 15 Gy D11", "value": "All sac'd at Day 13"}, {"measurement": "tumor growth", "setting": "4T1 tumors [8]; radiation plus GC4419 versus radiation alone", "value": "further tumor growth reduction"}, {"measurement": "oral mucositis", "setting": "[9]", "value": "reduce oral mucositis"}, {"measurement": "tumor growth", "setting": "[10]", "value": "further decrease"}, {"measurement": "V(x) / V(Group 3)", "setting": "4T1 tumors [11]; Balb/c mice, Day 17 volume relative to RT alone group", "value": 1.25}, {"measurement": "Day 17 Tumor Volume, V", "setting": "4T1 tumors [11]; Balb/c mice, mean, GC4419 24 mg/kg D11-15, RT 15 Gy D11", "value": 1923, "unit": "mm^3"}, {"measurement": "tumor growth", "setting": "4T1 tumors [11]; Balb/c mice, radiation plus GC4419 versus radiation alone", "value": "further tumor growth reduction"}, {"measurement": "increase in response to combined radiation and GC4419 treatment", "setting": "4T1 tumors [11]; Balb/c versus nu/nu mice", "value": "greater in immunocompetent mice than in immunodeficient mice"}, {"measurement": "tumor growth", "setting": "[12]; 3 mg/kg GC4419 QD x 21 added, started at least 3 days after antibody treatment", "value": "further decrease"}, {"measurement": "normalized tumor growth (FIG. 5B)", "setting": "[12]; GC4419 start delayed until day 13 after start of anti-CTLA4, versus anti-CTLA4 alone", "value": "reduced tumor growth"}, {"measurement": "intratumoral populations of neutrophils, macrophages and activated cytotoxic T-cells", "setting": "[13]; 10 mg/kg GC4419 with or without IR 15 Gy, flow cytometry, various time points", "value": "altered"}, {"measurement": "sensitization of tumors to ionizing radiation (FIG. 6A)", "setting": "[13]; GC4419 3, 10 and 24 mg/kg with 15 Gy", "value": "sensitized tumors to ionizing radiation regardless of dose"}, {"measurement": "sensitization of tumors to radiation (tumor volume, FIG. 4A)", "setting": "[14]; GC4419 24 mg/kg D12-16 with 15 Gy RT D12", "value": "sensitized 4T1 tumors to radiation regardless of GC4419 dose"}, {"measurement": "efficacy of combination anti CTLA-4 therapy and radiation therapy (tumor volume, FIG. 4B)", "setting": "[14]; GC4419 24 mg/kg added to anti-CTLA4 10 mg/kg + 15 Gy RT", "value": "enhanced the efficacy of combination anti CTLA-4 therapy and radiation therapy"}, {"measurement": "number of surface lung metastases (FIG. 4C)", "setting": "[14]; day 35 post implantation", "value": "significantly decreased the number of metastases"}, {"measurement": "% Mice without Lung Metastases", "setting": "[14]; day 35 post implantation, GC4419 24 mg/kg, RT 15 Gy, anti-CTLA4 10 mg/kg", "value": 0, "unit": "%"}]}
